Data set [1] in a line: Plasma pharmacokinetics (HPLC-MS/MS) of crizotinib, PD-0325901 and PD-0315209 in patients. The settings on record: for Decrease in pre-dose concentrations on Days 21 compared to Day -1: Cycle 1 and 2, PD-0325901 8 mg B.D dose only; for Tmax: plasma, po, combination treatment, 4 dose levels, read-out: Time of peak plasma concentrations after oral dosing. It is filed as in vivo, human. The procedure:
PK trough samples (pre-dose and 2-h post dose) were obtained on day 21 of cycles 2, 4, 6, 8, 10 and 12. Plasma concentrations were determined using a validated high-performance liquid chromatography mass spectrometry (HPLC-MS/MS) assay following solid-phase extraction of the plasma sample.

The subject of data set [2] is patients with advanced solid tumours. The data set is described as follows: Phase Ia dose-escalation: safety, DLT and MTD of PD-0325901 with crizotinib.
Description: (§1) Patients could remain on combination treatment until disease progression or predefined unacceptable toxicity. At each dose level and before escalation to the next level, a safety study board comprising representatives from the study sponsor and collaborating investigators reviewed individual patient safety and DLTs. DLTs were defined as an almost certainly or probable drug-related adverse events to either drug (Supplementary Table S1), during the first cycle of treatment.
(§2) Safety assessments comprised of physical examination including vital signs, weight, ECOG PS assessment, documentation of adverse events (AEs) and concomitant medication, with regular monitoring of haematology and biochemistry. Ophthalmic examinations (including visual acuity, pressure, perimetry, slit lamp examination, fundoscopy, and optical coherence tomography), ECG and Echocardiography/MUGA were performed at baseline and at pre-defined time-points during the trial. […] At this stage, patients were not required to have measurable disease. Anti-tumour activity was assessed by radiological investigations according to revised RECIST, version 1.1, at baseline (within 28 days before day 1 of cycle 1), then every 2 cycles and at the end of treatment.
(§3) Safety and efficacy data were summarised using descriptive statistics. Evaluable patients for toxicity were those patients that received at least one dose of one or both drugs. Evaluable patients for MTD or dose escalation were those patients who completed cycle 1 or withdrew early for experiencing a DLT. Response analyses (i.e., RECIST 1.1) were performed on an intention-to-treat basis, and any patient who received any dose of study treatment was evaluable for response. Progression-free-survival (PFS) was defined as the time between receiving the first dose of study medication (cycle 1, day -7) to disease progression or death from any cause. Overall survival (OS) was defined as the time between cycle 1, day -7 to death from any cause.
A further data set has as its system pERK1/2. Also noted: method as in PMID 20215549. The settings on record: doses ≥2 mg PD-0325901 B.D; cited from earlier work.
Data set [3] has as its system patients with advanced malignancies. The conditions noted are these: cited from earlier work.
For data set [4], the system named is patients with advanced solid tumours. The conditions noted are these: in vivo.
Description: as §1, §2, §3
Data set [5] deals with pERK1/2 and pMEK1/2 levels in skin biopsies. The data set is described as follows: Pharmacodynamic markers in paired skin biopsies by Western blotting. The format is in vivo, human. The settings on record: in particular at 8 mg B.D PD-0325901.
Protocol: All patients consented to a fresh frozen punch skin biopsy during screening and on cycle 1 day 15 (±7 days). PD markers of MEK1/2 inhibition (pMEK1/2 and pERK1/2 levels) in skin biopsies were assessed by Western blotting, previously described [18, 30]. […] Western blot images were developed using the G:BOX Chemi XX6 gel doc system (Syngene, Cambridge, UK). Densitometry on Western blot images was performed using ImageJ software.
For a further data set, the system named is cMET. The conditions noted are these: cited from earlier work.

Bounds are passed on as bounds.

On to `O=C(O)c1ccc(F)c(F)c1Nc1ccc(I)cc1F` [PD-0315209], for which the “Decrease in pre-dose concentrations on Days 21 compared to Day -1” value in data set [1] was 1.8–2.2 fold.
On to `O=C(NOC[C@H](O)CO)c1ccc(F)c(F)c1Nc1ccc(I)cc1F` [PD-0325901], for which the “Maximum tolerable dose (MTD) of PD-0325901 in combination with crizotinib” value in data set [2] (days 1–21 of 28-day cycle, with crizotinib 200 mg B.D) is 8 mg B.D. For the same molecule, in the data set with pERK1/2, the “Suppression of pERK1/2 in melanoma patient samples” value is reported as not below 60%. Besides, the “Maximum tolerated dose (MTD), single agent” value in data set [3] (continuously, subsequently revised due to late retinal vein occlusion) is 15 mg twice daily (B.D). Also, the “Doses resulting in intolerable toxicity, single agent” value in data set [3] (irrespective of the schedule) was > 15 mg twice a day (B.D). Further, in data set [3] (multiple B.D dosing), the “AUC at day 21 compared to day 1 (first dose), single agent” value is recorded as “slightly higher”. For the same molecule, the “Serious adverse events thought to be drug-related” value in data set [4] is “one”. Further, in data set [1], the “Decrease in pre-dose concentrations on Days 21 compared to Day -1” value is reported as 1.8–2.2 fold. Besides, in data set [1] (all dose levels), the “Plasma concentrations relative to those required to inhibit MEK1/2 activity” value is “reached levels consistent with those required to inhibit MEK1/2 activity at all dose levels”. Also, the Tmax in data set [1] (human) was 1.02 to 2.27 h. Moreover, in data set [5], the “pMEK1/2 levels in skin biopsies, post- vs pre-treatment” value was “significant accumulation”.
For the molecule `C[C@@H](Oc1cc(-c2cnn(C3CCNCC3)c2)cnc1N)c1c(Cl)ccc(F)c1Cl` [crizotinib], the “Number of drug-related adverse events determined to be related to the named drug” value in data set [2] (all cohorts, combination treatment) came to 124. Also, the “Patients requiring a dose reduction of the named drug due to DR-AEs” value in data set [2] (combination treatment, all cohorts) was “No patients”. For the same molecule, the “Maximum tolerable dose (MTD) of crizotinib in combination with PD-0325901” value in data set [2] (continuously (days 1–28), with PD-0325901 8 mg B.D) was found to be 200 mg B.D. In data set [1] (Cycle 1 Day 21 vs Cycle 1 Day 28), the “Steady state on multiple dosing” value is listed as “reached steady state by day 21”. Also, in data set [1] (all cohorts (data not shown)), the “Median trough plasma concentrations” value is recorded as more than 62 ng/mL. In data set [1] (days 21 and 28, p < 0.05), the “Increase in crizotinib Cmax, Cmin and AUC0-10h with B.D dosing (cohorts 2-4) compared with cohort 1 (O.D)” value was 1.6–2.6 fold. Besides, the “Effect of PD-0325901 dose escalation (cohort 2 to cohort 4) on PK parameters of crizotinib” value in data set [1] (human, in vivo) is listed as “did not appear to affect”. In addition, the Tmax in data set [1] (human) is 2.76 to 5.21 h. Further, the “Pre-clinically predicted effective concentration to inhibit c-MET” value with cMET was 62 ng/mL.
